Entries after “also recorded” stand apart in the source; their conditions may differ.
Tests used:
Assay type in all cases: physicochemical
[1] = UV/visible absorption and circular dichroism of chlorin-loaded lipid nanovesicles
Description: (§1) Z-average size and polydispersity of the samples in PBS were measured using a Malvern ZS90 (Instruments, UK). Absorption spectra of each sample was determined by UV spectroscopy (CARY 50 UV/Vis S3 Spectrophotometer, Varian Inc.). Absorption spectra of intact samples was measured in PBS, and that of detergent disrupted samples was measured after adding Triton-X100 so that the final detergent concentration was 0.1% v/v.
(§2) Where F0 and Fdetergent are the integration of fluorescence intensity from 600 nm to 800 nm for intact and detergent-disrupted sample respectively. Circular dichroism spectra was measured in PBS and 0.1% Triton-X100 using a J-815 Circular Dichroism Spectrometer (JASCO Inc.).

[2] = Dynamic light scattering size measurement of chlorin derivatives embedded in liposomes; details: 20% chlorin derivatives embedded within liposomes
Description: Lipid film was prepared in the 12 mm×35 mm clear glass threaded vials (Fisher Scientific) by combining 20% of chlorin derivatives (either Zn-MeO-chlorin acid 7, Zn-vinyl-chlorin lipid, MeO-chlorin lipid, or Zn-MeO-chlorin lipid) with 75% DPPC and 5% DPPE-mPEG2000 dissolved in MeOH or chloroform. The lipid solutions were dried under a stream of nitrogen gas for 30 min and further dried under vacuum desiccation for at least 3 h before hydration. One milliliter phosphate buffered saline (PBS) was added to the lipid films and 10 freeze and thaw cycles was performed by sequentially freezing the sample in liquid nitrogen, followed by rapid thawing in a 70° C. water bath. Dispersed particles were then subjected to extrusion by passing samples 10 times through a high pressure extruder loaded with 100 nm polycarbonate filter membranes at 70° C.
as §1

[3] = Fluorescence properties and quenching of chlorin derivatives in lipid nanovesicles; details: embedded within lipid nanovesicles; for Full width at half max: fluorescence
Description: Fluorescence measurements were carried out Fluoromax ut on a Fluoromax-4 spectrofluorometer (Horiba Jobin Yvon, NJ) Fluorescence spectra of intact and detergent disrupted state was measured by exciting samples at 556 nm with a 5 nm slit width and collecting fluorescence from 600 nm to 800 with a 5 nm slit width. Quenching efficiency was calculated by the following equation: […]
as §2

[4] = Storage stability of nanoparticles at room temperature after freeze-thaw; details: 10 days, PBS, after freeze-thaw rehydration
Description: The color of Zn-MeO-chlorin acid (7) and Zn-MeO-chlorinchlorin lipid (11) nanoparticles was monitored after 10 freeze and thaw cycles. Concentration of chlorin dyes in each sample was adjusted to 60 μM. Samples were stored in the dark at room temperature for 10 days.

[5] = UV/visible absorption of chlorin oleylamine loaded lipoprotein nanoparticles; details: for Qy-band wavelength shift: intact lipoprotein nanoparticle in PBS vs monomeric form in methanol, 10:1 DMPC:dye
Description: Lipid film was prepared in 12 mm×75 mm clear glass threaded vials (Fisher Scientific) by combining 0.1 μmol (4, 10, 10, 13 or 17) and 1.0 μmol DMPC in chloroform. The lipid solutions were dried under a slow stream of nitrogen gas for 30 min and further dried under a higher stream for at least 1 h before hydration. One mL of phosphate buffered saline (PBS) was added to the dried lipid films and sonicated in a 47° C. water bath for 10 minutes immediately followed by Bioruptor at low frequency (30 kHz) for 30 cycles (30 s on/30 s off) at 40° C. R4F peptide (0.1 μmol; 1 mg/mL in PBS) was added into the rehydrated solution and the mixture was mixed gently at 4° C. overnight. The solution was centrifuged at 13 500 rpm for 20 min subsequently and filtered with a 0.1 μm membrane. Unbound peptide was removed and nanoparticle sample was concentrated using a 10 kDa membrane centrifugal filter (EMD Millipore) by two rounds of centrifugation at 4000 g for 7 min at 4° C.
The UV-Vis absorption spectra of lipoprotein nanoparticles with Zn-containing oleylamine compounds 4, 10 and 17 are shown in FIG. 14. The intact structures are labeled in green (solid line) and methanol-disrupted structures are labeled in black (dashed line).

[6] = 20% loading, intact nanovesicles

Row | Compound | ordered aggregation in the lipid bilayer ([1]; nanovesicles) | Z-average [2] [nm·days] | FL λmax [3] [nm] | Stokes Shift [3] | Full width at half max [3] [nm] | PDI (polydispersity index) [2] | Qy-band wavelength shift [5] [nm] | stability on storage (visible dispersion) [4] | further results
1 | CCCCCCCCCCCCCCCC(=O)OCC(COP(=O)([O-])OCC[N+](C)(C)C)OC(=O)CC[C@@H]1c2nc(cc3[nH]c(cc4nc(cc5[nH]c6c2CC(=O)c6c5C)C(CC)=C4C)c(COC)c3C)[C@H]1C (some centres unmarked) [MeO-chlorin lipid, 3-Devinyl-3′-methoxymethyl-13^2-demethoxycarbonylpheophorbide-a lipid] | did not | 105 ± 1.6 | 676 | 10 nm | 40 |  |  |  | 
2 | CCC1=C(C)C2=NC1=Cc1c(C)c3c4[n]1[Zn][n]1c(c(C)c(COC)c1=C2)=CC1=NC(=C4CC3=O)[C@@H](CCC(=O)O)[C@@H]1C [Zn-MeO-chlorin acid, Zinc 3-devinyl-3′-methoxymethy-13^2-demethoxycarbonylpheophorbide-a] |  | 113.9 ± 9.6 | 664 | 1 nm | 24 | > 0.3 |  | flocculated after 10 days; also recorded: Precipitate was observed | shift in optical absorption / CD ([1]; nanovesicles, 1% loading for Zn-MeO-chlorin acid, 20% for chlorin lipids): did not demonstrate appreciable shift in optical absorption nor CD; PDI (polydispersity index) ([2]; listed as Zu—MeO-chlorin acid): 0.3 ± 0.2
3 | Zinc 3-Devinyl-3′-methoxymethyl-13^2-demethoxycarbonylpheophorbide-a lipid [Zn-MeO-chlorin lipid] | showed ordered aggregation | 96.0 ± 3.9 | 725 | no appreciable Stokes' shift | 15 | 0.10 ± 0.04 |  | remained visibly dispersed | CD spectra [1, 6]: bisignate spectra around the Qy band region; far red-shifted absorption peak [1, 6]: 725 nm; secondary peak red-shift from the monomer absorption [1, 6]: 3 nm; bathochromic shift in the lowest energy absorption band (Qy) ([1]; lipid nanovesicles vs monomeric state in methanol or 0.1% Triton X-100): 72 nm; effect of dye loading beyond 20% on spectra ([1]; loading titrated 1-30 mol % of total lipid): neither UV/Vis spectra nor CD spectra significantly changed; Stokes Shift ([3]; listed as Zn—MeO-chlorin lipid): 0 nm

Second part, led by results:

Row | ordered aggregation in the lipid bilayer ([1]; nanovesicles) | Z-average [2] [nm·days] | FL λmax [3] [nm] | Stokes Shift [3] | Full width at half max [3] [nm] | PDI (polydispersity index) [2] | Qy-band wavelength shift [5] [nm] | Compound | stability on storage (visible dispersion) [4] | further results
4 |  |  |  |  |  |  | 8 | C=Cc1c(C)c2[n]3c1=CC1=NC(=Cc4c(C)c5c([n]4[Zn]3)C(=C3N=C(C=2)[C@@H](C)[C@@H]3CCC(=O)NCCCCCCCC/C=C\CCCCCCCC)CC5=O)C(CC)=C1C [Zn-vinyl-chlorin oleylamine, Zinc 13^2-demethoxycarbonylpheophorbide-a oleylamine] |  | 
5 |  |  |  |  |  |  | 61 | CCCCCCCC/C=C\CCCCCCCCNC(=O)CC[C@@H]1C2=C3CC(=O)c4c(C)c5[n](c43)[Zn][n]3c(c(C)c(CO)c3=CC3=NC(=C5)C(CC)=C3C)=CC(=N2)[C@H]1C [Zn—OH-chlorin oleylamine, Zinc 3-Devinyl-3^1-hydroxyl-13^2-demethoxycarbonylpheophorbide-a oleylamine] |  | absorption when nanostructures disrupted ([5]; lipoprotein nanoparticles, disrupted): 654 nm; absorption of loaded (intact) nanoparticles ([5]; lipoprotein nanoparticles, intact): 715 nm
6 | did not | 101 ± 2.3 | 682 | 9 nm | 21 |  |  | Zinc 13^2-demethoxycarbonylpheophorbide-a lipid [Zn-vinyl-chlorin lipid] |  | 

— patent US20190307893A1, “NANOVESICLES WITH PORPHYRIN-LIPID CONJUGATE CORE” (UNIVERSITY HEALTH NETWORK, priority 2016, published 2019)
